Measurements published in BindingDB's records for patent US20250313563 (The Broad Institute, 2025).
“And” between values parts separate entries of the source, which are not always exact repeats. Identical values can stand only once.

How the values were obtained:
[1] = biological target: Glycogen synthase kinase-3 beta (Homo sapiens, UniProt P49841); experiment: TR-FRET Assay
In short: (§1)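 Signal is measured as TR-FRET between a terbium anti-phospho-Ser641 antibody and streptavidin-d2, added after an EDTA quench. Compounds are preincubated 30 min in assay buffer.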

[2] = biological target: Glycogen synthase kinase-3 alpha (Homo sapiens, UniProt P49840); experiment: TR-FRET Assay
In short: as §1

Chain of Glycogen synthase kinase-3 beta (P49841 whole entry): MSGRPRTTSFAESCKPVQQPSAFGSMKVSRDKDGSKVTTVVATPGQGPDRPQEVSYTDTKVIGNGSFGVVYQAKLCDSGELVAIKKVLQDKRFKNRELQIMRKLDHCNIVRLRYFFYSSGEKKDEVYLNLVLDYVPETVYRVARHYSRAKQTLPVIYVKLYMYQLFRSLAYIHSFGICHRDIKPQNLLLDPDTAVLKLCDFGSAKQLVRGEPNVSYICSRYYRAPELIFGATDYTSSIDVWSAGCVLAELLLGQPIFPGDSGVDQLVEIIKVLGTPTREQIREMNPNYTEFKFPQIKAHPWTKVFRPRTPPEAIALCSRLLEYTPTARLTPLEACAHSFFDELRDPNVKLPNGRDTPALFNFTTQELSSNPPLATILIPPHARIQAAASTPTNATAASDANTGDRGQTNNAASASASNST
Chain of Glycogen synthase kinase-3 alpha (P49840 whole entry): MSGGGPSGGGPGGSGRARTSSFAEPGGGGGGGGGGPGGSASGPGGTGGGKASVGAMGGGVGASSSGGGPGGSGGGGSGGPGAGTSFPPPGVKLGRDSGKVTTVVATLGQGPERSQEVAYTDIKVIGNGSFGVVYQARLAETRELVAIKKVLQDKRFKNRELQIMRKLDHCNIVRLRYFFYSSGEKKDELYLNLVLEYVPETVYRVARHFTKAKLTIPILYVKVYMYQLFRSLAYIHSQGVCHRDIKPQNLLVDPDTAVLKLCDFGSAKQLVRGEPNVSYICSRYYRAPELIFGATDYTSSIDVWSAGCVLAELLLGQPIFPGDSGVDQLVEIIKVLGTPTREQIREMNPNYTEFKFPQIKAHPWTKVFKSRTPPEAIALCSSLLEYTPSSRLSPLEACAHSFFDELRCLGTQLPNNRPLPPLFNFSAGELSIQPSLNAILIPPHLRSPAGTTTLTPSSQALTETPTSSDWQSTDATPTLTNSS

IC50 [1] | IC50 [2] | Structure (SMILES)
> 5000 nM | 1000 to 5000 nM | CC(C)[C@H]1C[C@@]2(CCO1)C1=C(N=NC1)NC1=C2C(=O)CC(C)(C)C1 [US20250313563, Compound 884014]
< 100 nM | < 100 nM | CCC1(c2cccc(N(CCOC)C(C)=O)c2)C2=CN=NC2NC2=C1C(=O)CC(C)(C)C2 (centres undefined) [US20250313563, Compound 893306]
100 to 1000 nM | < 100 nM | CC[C@]1(c2cc(-c3ccnc(C)c3)ccc2F)C2=CN=NC2NC2=C1C(=O)CC(C)(C)C2 (some centres undefined) [US20250313563, Compound 909212]
> 1670 nM | 100 to 1000 nM | CC[C@@]1(c2cccc(C(F)(F)F)c2)C2=CN=NC2NC2=C1C(=O)CC1(CCCC1)C2 (some centres undefined) [US20250313563, Compound 801310]
< 100 nM | < 100 nM | CC1(C)CC(=O)C2=C(C1)NC1=C(CN=N1)[C@]21COC2(CN(C(=O)C3(F)CCC3)C2)C1 [US20250313563, Compound 947735]
100 to 1000 nM | < 100 nM and 100 to 1000 nM | CC[C@]1(c2cccc(C(F)(F)F)c2)C2=C(N=NC2)NC2=C1C(=O)N(Cc1ccccc1)C2 [US20250313563, Compound 929388]
1000 to 5000 nM | 100 to 1000 nM | CCC1(c2cccc(N(C)c3ccnc(C)c3)c2)C2=CN=NC2NC2=C1C(=O)CC(C)(C)C2 (centres undefined) [US20250313563, Compound 917149]
100 to 1000 nM | < 100 nM | CCC1(c2cccc(-c3cnn(C)c3)c2)C2=C(CC(C)(C)CC2=O)NC2N=NC(C)=C21 (centres undefined) [US20250313563, Compound 884000]
< 100 nM | < 100 nM | Cc1cc(S(=O)(=O)N2CCC3(CC2)C2=C(N=NC2)NC2=C3C(=O)CC(C)(C)C2)ccn1 [US20250313563, Compound 947481]
> 5000 nM | > 5000 nM | CC(C)N1CC2(C1)C1=C(N=NC1)NC1=C2C(=O)CC(C)(C)C1 [US20250313563, Compound 932650]
> 5000 nM | 1000 to 5000 nM | CC1(C)CC(=O)C2=C(C1)NC1N=NC=C1[C@@]21CCCc2ccccc21 (some centres undefined) [US20250313563, Compound 930565]
1000 to 5000 nM | 100 to 1000 nM | CC[C@@]1(c2cccc(-c3ccnc(C)c3)c2)C2=C(CC(C)(C)CC2=O)NC2N=NC(C)=C21 (some centres undefined) [US20250313563, Compound 913018]
1000 to 5000 nM | 100 to 1000 nM | CCC1(c2cccc(N(C)c3nc(C)cc(C)n3)c2)C2=CN=NC2NC2=C1C(=O)CC(C)(C)C2 (centres undefined) [US20250313563, Compound 926304]
100 to 1000 nM | 100 to 1000 nM | CC[C@]1(c2cccc(C(F)(F)F)c2)C2=CN=NC2NC2=C1C(=O)N(c1ccccn1)CC2 (some centres undefined) [US20250313563, Compound 949310]
< 100 nM and 1000 to 5000 nM | < 100 nM | CC[C@]1(c2cccc(-c3cn(C)nc3C)c2)C2=CN=NC2NC2=C1C(=O)NC1(CCCC1)C2 (some centres undefined) [US20250313563, Compound 950252]
< 100 nM | < 100 nM | CCC1(c2cccc(N(C)c3ncccn3)c2)C2=C(CC(C)(C)NC2=O)NC2N=NC(Cl)=C21 (centres undefined) [US20250313563, Compound 949417]
1000 to 5000 nM | 100 to 1000 nM | CC[C@]1(c2cccc(-c3cnnn3C)c2)C2=CN=NC2NC2=C1C(=O)CC(C)(C)C2 (some centres undefined) [US20250313563, Compound 947824]
> 5000 nM | > 5000 nM | CC[C@@]1(c2cccc(C(F)(F)F)c2)C2=C(N=NC2)NC2=C1C(=O)NC2(C)C [US20250313563, Compound 913452]
100 to 1000 nM | < 100 nM | CC1(C)CC(=O)C2=C(C1)NC1=C(CN=N1)C21CCN(S(=O)(=O)c2cnnn2-c2ccccc2)CC1 [US20250313563, Compound 947466]
1000 to 5000 nM | 100 to 1000 nM | CC[C@]1(c2cccc(N3CCCC3)c2)C2=C(CC(C)(C)CC2=O)NC2N=NC(C)=C21 (some centres undefined) [US20250313563, Compound 883875]
1000 to 5000 nM | 100 to 1000 nM | CCC1(c2cccc(N3[C@H](C)CCC[C@@H]3C)c2)C2=CN=NC2NC2=C1C(=O)CC(C)(C)C2 (some centres undefined) [US20250313563, Compound 865172]
1000 to 5000 nM | 100 to 1000 nM | CC[C@@]1(c2cccc(-c3cnn(Cc4ccc(OC)cc4)c3)c2)C2=CN=NC2NC2=C1C(=O)NC(C)(C)C2 (some centres undefined) [US20250313563, Compound 951838]
100 to 1000 nM | < 100 nM | CC[C@]1(c2cccc(-c3ccnc(C)c3)c2)C2=CN=NC2NC2=C1C(=O)N[C@@H](C)C2 (some centres undefined) [US20250313563, Compound 932658]
> 5000 nM | > 5000 nM | CC[C@]1(c2cccc(N(C)c3ncccn3)c2)C2=C(CC(C)(C)NC2=O)NC2N=NC(Cl)=C21 (some centres undefined) [US20250313563, Compound 951592]
< 100 nM and 1000 to 5000 nM | < 100 nM and 100 to 1000 nM | CCC1(c2cccc(-c3ccnc(C)c3)c2)C2=C(CC(C)(C)NC2=O)NC2N=NC(C(F)F)=C21 (centres undefined) [US20250313563, Compound 949169]
> 5000 nM | 1000 to 5000 nM | CC[C@@]1(c2cccc(C(F)(F)F)c2)C2=CN=NC2NC2=C1C(=O)N(c1ccc(F)cc1)CC2 (some centres undefined) [US20250313563, Compound 948225]

IC50 [1] | IC50 [2] | Structure (SMILES)
< 100 nM and 1000 to 5000 nM | < 100 nM | CC[C@@]1(c2cccc(-c3ccncc3C(F)(F)F)c2)C2=CN=NC2NC2=C1C(=O)NC(C)(C)C2 (some centres undefined) [US20250313563, Compound 952025]
100 to 1000 nM | 100 to 1000 nM | CC[C@]1(c2cccc(-c3cnn4c3CCCC4)c2)C2=C(CC(C)(C)NC2=O)NC2N=NC(C(F)(F)F)=C21 (some centres undefined) [US20250313563, Compound 948772]
< 100 nM | < 100 nM | CC1(C)CC(=O)C2=C(C1)NC1=C(CN=N1)C21COC2(CN(C(=O)CC3CCCCC3)C2)C1 (centres undefined) [US20250313563, Compound 947305]
< 100 nM | < 100 nM | COc1ccc(F)c(S(=O)(=O)N2CCC3(CC2)C2=C(N=NC2)NC2=C3C(=O)CC(C)(C)C2)c1 [US20250313563, Compound 945665]
< 100 nM | < 100 nM | CC[C@]1(c2cccc(-c3ccncc3C)c2)C2=C(CC(C)(C)NC2=O)NC2N=NC(C(F)(F)F)=C21 (some centres undefined) [US20250313563, Compound 947812]
1000 to 5000 nM | 1000 to 5000 nM | CC1(C)CC(=O)C2=C(C1)NC1=C(CN=N1)[C@]21CCOC(C)(C)C1 [US20250313563, Compound 924298]
> 5000 nM | > 5000 nM | CC[C@]1(c2cccc(C(F)(F)F)c2)C2=CN=NC2NC2=C1C(=O)C[C@@]1(CCNC1=O)C2 (some centres undefined) [US20250313563, Compound 950332]
< 100 nM and 100 to 1000 nM | < 100 nM | CC1(C)CC(=O)C2=C(C1)NC1=C(CN=N1)C21CCN(S(=O)(=O)Cc2ccccc2)CC1 [US20250313563, Compound 929437]
< 100 nM | < 100 nM | Cc1csc(S(=O)(=O)N2CCC3(CC2)C2=C(N=NC2)NC2=C3C(=O)CC(C)(C)C2)n1 [US20250313563, Compound 947897]
100 to 1000 nM | 100 to 1000 nM | CC1(C)CC(=O)C2=C(C1)NC1=C(CN=N1)[C@]21C[C@@]2(CCN(CC(F)F)C2)C1 [US20250313563, Compound 913139]
< 100 nM | 100 to 1000 nM | CC(C)(C)CC1=C2C(N=N1)NC1=C(C(=O)CC(C)(C)C1)[C@@]21CCc2cccc(F)c21 (some centres undefined) [US20250313563, Compound 801352]
< 100 nM | < 100 nM | CCC1(c2cccc(-c3cncn3C)c2)C2=C(CC(C)(C)NC2=O)NC2N=NC(C(F)(F)F)=C21 (centres undefined) [US20250313563, Compound 948180]
> 5000 nM | > 5000 nM | CC[C@]1(c2cccc(-c3ccncc3)c2)C2=CN=NC2NC2=C1C(=O)CC(C)(C)C2 (some centres undefined) [US20250313563, Compound 801412]
< 100 nM | < 100 nM | CCC1(c2cccc(-c3c(C)cnn3C)c2)C2=CN=NC2NC2=C1C(=O)CC(C)(C)C2 (centres undefined) [US20250313563, Compound 947491]
100 to 1000 nM | 100 to 1000 nM | CC1(C)CC(=O)C2=C(C1)NC1=C(CN=N1)[C@@]21COC2(CCC2)C1 [US20250313563, Compound 917129]
100 to 1000 nM | 1000 to 5000 nM | CC1(C)CC(=O)C2=C(C1)NC1N=NC(C3(C(F)(F)F)CC3)=C1[C@]21CCc2c(F)cccc21 (some centres undefined) [US20250313563, Compound 816840]
> 5000 nM | 1000 to 5000 nM | CCC1(CC)C2=C(N=NC2)NC2=C1C(=O)CC(C)(C)C2 [US20250313563, Compound 810505]
> 5000 nM | > 5000 nM | CC[C@]1(c2cccc(-c3ccnn3-c3ccc(F)cc3)c2)C2=CN=NC2NC2=C1C(=O)NC(C)(C)C2 (some centres undefined) [US20250313563, Compound 949396]
< 100 nM | < 100 nM | CCC1(c2cccc(-c3cnn4c3CCCC4)c2)C2=C(CC(C)(C)NC2=O)NC2N=NC(C(F)(F)F)=C21 (centres undefined) [US20250313563, Compound 947801]
100 to 1000 nM | < 100 nM | CC1(C)CC(=O)C2=C(C1)NC1N=NC=C1C21CCCN(S(=O)(=O)Cc2ccccc2)CC1 (centres undefined) [US20250313563, Compound 932632]
100 to 1000 nM | 100 to 1000 nM | CCC1(c2cccc(C(F)(F)F)c2)C2=C(N=NC2)NC2=C1C(=O)CC2 (centres undefined) [US20250313563, Compound 949639]
> 5000 nM | > 5000 nM | CC[C@@]1(c2cccc(C(C)C)c2)C2=C(CC(C)(C)NC2=O)NC2N=NC(C)=C21 (some centres undefined) [US20250313563, Compound 949646]
< 100 nM | < 100 nM | CCc1ncc(S(=O)(=O)N2CCC3(CC2)C2=CN=NC2NC2=C3C(=O)NC(C)(C)C2)s1 (centres undefined) [US20250313563, Compound 947837]
100 to 1000 nM | < 100 nM | CCC1(c2cccc(C(F)(F)F)c2)C2=CN=NC2NC2=C1C(=O)N(c1ccc(OC)cc1)CC2 (centres undefined) [US20250313563, Compound 947332]
< 100 nM and 1000 to 5000 nM | < 100 nM and 100 to 1000 nM | CC[C@@]1(c2cccc(-c3ccncc3O)c2)C2=CN=NC2NC2=C1C(=O)CC(C)(C)C2 (some centres undefined) [US20250313563, Compound 945724]
1000 to 5000 nM | 100 to 1000 nM | CC[C@]1(c2cccc(-c3ccncc3)c2)C2=C(CC(C)(C)CC2=O)NC2N=NC(C)=C21 (some centres undefined) [US20250313563, Compound 913054]
